Laboratory results reported in ChEMBL document CHEMBL5291721, “A preclinical secondary pharmacology resource illuminates target-adverse drug reaction associations of marketed drugs” (Nat Commun, 2023).

How the values were obtained:
Adenosine receptor A1 = molecular target: T1, Adenosine receptor A1 (Homo sapiens, UniProt P30542)
T1 sequence (P30542 whole entry): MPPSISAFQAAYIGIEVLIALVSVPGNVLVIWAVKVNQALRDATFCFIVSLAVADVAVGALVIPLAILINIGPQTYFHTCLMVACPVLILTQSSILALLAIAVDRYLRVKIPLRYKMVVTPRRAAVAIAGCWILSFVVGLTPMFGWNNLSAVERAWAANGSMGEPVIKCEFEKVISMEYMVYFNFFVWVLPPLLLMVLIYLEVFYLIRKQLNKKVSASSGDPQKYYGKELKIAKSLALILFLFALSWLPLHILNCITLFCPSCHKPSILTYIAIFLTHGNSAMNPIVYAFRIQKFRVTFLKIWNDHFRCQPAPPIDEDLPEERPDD

[1] = molecular target: T2, Alpha-1A adrenergic receptor (Homo sapiens, UniProt P35348); format: functional, cell-based
T2 sequence (P35348 whole entry): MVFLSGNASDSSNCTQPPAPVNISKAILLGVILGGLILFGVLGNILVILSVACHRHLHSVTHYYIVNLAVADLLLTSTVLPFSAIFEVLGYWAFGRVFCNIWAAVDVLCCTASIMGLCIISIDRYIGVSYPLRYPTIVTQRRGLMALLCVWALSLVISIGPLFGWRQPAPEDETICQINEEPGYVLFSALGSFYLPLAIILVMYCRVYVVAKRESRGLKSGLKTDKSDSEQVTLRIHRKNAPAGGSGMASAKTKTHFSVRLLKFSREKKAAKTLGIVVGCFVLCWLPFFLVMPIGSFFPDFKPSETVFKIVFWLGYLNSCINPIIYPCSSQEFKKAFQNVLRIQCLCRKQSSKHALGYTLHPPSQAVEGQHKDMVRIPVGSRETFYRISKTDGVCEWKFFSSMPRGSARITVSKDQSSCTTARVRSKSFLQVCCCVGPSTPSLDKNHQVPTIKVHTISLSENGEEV

[2] = molecular target: Gamma-aminobutyric acid receptor subunit alpha-1 (Rattus norvegicus, UniProt P62813); format: functional
Motilin receptor = Motilin receptor (Homo sapiens, UniProt O43193)
Cannabinoid receptor 1 = Cannabinoid receptor 1 (Homo sapiens, UniProt P21554); format: functional, cell-based
[3] = molecular target: Sodium-dependent noradrenaline transporter (Homo sapiens, UniProt P23975)
[4] = molecular target: 5-hydroxytryptamine receptor 2A (Homo sapiens, UniProt P28223); format: functional, cell-based
Histamine H2 receptor = Histamine H2 receptor (Homo sapiens, UniProt P25021); format: functional, cell-based
[5] = molecular target: T3, 5-hydroxytryptamine receptor 3A (Homo sapiens, UniProt P46098); format: functional
T3 sequence (P46098 whole entry): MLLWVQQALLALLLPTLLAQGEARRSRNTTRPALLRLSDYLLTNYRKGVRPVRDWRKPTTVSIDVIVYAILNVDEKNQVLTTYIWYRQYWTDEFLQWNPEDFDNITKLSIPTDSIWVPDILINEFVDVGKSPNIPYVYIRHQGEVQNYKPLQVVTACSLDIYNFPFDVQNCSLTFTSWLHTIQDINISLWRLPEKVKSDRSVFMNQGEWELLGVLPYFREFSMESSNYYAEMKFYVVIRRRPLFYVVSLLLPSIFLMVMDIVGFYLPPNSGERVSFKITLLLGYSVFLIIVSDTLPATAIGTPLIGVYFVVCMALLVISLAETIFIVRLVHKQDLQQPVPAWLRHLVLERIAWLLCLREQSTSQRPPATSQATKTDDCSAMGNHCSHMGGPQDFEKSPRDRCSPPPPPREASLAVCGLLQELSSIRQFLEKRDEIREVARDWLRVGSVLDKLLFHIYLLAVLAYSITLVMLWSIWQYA

[6] = molecular target: Delta-type opioid receptor (Homo sapiens, UniProt P41143)
[7] = molecular target: 5-hydroxytryptamine receptor 2B (Homo sapiens, UniProt P41595); format: functional, cell-based
Progesterone receptor = molecular target: T4, Progesterone receptor (Homo sapiens, UniProt P06401); format: functional
T4 sequence (P06401 whole entry): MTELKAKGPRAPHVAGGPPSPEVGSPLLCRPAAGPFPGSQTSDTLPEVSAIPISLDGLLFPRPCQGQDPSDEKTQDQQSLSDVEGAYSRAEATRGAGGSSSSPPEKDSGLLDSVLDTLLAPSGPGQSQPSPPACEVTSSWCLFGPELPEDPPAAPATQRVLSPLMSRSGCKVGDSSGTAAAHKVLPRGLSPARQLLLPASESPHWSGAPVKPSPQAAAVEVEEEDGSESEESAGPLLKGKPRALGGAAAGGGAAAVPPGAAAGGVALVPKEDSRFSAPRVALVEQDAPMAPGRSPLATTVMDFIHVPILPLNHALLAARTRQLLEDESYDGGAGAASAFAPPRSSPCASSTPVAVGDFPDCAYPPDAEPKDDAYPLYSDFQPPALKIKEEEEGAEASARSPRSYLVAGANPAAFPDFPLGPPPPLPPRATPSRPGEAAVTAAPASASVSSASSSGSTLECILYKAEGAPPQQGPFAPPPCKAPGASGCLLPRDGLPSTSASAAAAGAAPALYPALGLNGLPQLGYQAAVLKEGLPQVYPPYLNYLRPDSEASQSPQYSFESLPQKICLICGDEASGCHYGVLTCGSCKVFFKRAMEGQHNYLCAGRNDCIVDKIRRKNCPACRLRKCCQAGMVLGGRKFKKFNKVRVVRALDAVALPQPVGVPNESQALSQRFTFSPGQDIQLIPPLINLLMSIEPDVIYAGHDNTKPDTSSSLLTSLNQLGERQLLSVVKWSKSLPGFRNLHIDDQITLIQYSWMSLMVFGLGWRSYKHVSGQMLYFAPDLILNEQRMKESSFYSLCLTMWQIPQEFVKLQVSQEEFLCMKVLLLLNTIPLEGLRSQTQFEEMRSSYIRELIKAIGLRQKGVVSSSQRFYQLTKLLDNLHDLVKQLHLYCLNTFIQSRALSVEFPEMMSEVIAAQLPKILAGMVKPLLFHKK
Note: assay procedure not described here.

Sequence of Delta-type opioid receptor (P41143 whole entry): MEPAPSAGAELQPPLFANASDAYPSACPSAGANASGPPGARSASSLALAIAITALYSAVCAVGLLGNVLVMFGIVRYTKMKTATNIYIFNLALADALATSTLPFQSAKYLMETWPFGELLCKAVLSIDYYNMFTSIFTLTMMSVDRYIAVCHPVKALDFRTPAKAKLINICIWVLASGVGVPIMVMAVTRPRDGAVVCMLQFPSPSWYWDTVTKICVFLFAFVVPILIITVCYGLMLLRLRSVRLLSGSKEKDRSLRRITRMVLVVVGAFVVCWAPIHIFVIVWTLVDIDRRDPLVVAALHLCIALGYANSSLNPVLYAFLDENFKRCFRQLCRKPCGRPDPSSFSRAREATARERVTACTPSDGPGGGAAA
Sequence of 5-hydroxytryptamine receptor 2A (P28223 whole entry): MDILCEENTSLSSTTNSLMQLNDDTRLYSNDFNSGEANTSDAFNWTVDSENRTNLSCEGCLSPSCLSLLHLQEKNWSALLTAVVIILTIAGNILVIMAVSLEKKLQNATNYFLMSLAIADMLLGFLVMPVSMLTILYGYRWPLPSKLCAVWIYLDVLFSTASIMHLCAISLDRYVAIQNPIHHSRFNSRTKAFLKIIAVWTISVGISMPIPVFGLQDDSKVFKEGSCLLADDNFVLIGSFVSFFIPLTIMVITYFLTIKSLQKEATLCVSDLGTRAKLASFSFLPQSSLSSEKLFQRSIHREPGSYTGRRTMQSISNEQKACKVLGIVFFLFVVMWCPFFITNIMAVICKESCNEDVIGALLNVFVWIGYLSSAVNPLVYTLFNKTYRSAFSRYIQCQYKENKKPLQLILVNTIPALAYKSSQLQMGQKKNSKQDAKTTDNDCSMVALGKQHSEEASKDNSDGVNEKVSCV
Sequence of Sodium-dependent noradrenaline transporter (P23975 whole entry): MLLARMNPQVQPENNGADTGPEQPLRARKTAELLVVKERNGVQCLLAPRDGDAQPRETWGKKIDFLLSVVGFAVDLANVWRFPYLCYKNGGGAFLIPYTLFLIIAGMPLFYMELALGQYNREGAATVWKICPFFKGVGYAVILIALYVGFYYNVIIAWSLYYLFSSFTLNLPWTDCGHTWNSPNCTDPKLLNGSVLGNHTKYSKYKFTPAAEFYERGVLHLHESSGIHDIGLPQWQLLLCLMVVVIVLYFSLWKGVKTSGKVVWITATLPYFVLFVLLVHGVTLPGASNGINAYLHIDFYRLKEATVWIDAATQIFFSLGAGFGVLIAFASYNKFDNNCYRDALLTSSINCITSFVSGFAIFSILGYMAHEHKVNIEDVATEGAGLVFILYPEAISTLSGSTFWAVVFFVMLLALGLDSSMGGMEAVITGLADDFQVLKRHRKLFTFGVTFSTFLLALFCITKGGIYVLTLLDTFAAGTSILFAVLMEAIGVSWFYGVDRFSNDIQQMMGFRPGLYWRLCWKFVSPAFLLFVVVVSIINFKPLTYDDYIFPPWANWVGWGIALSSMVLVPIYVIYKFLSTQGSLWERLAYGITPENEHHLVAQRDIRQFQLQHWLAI
Sequence of Gamma-aminobutyric acid receptor subunit alpha-1 (P62813 whole entry): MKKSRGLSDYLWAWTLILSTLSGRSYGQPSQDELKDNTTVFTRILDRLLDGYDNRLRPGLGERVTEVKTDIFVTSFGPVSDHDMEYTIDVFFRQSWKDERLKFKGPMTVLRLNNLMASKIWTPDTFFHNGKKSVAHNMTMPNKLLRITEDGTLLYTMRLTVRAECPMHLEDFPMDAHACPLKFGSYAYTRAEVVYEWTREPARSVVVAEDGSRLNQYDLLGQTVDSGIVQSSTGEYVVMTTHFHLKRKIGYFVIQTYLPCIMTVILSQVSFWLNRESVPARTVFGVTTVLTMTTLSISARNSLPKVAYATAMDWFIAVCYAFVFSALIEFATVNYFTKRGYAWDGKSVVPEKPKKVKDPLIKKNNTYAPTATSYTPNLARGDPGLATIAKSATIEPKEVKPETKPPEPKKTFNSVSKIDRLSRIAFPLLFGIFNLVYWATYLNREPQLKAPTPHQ
Sequence of 5-hydroxytryptamine receptor 2B (P41595 whole entry): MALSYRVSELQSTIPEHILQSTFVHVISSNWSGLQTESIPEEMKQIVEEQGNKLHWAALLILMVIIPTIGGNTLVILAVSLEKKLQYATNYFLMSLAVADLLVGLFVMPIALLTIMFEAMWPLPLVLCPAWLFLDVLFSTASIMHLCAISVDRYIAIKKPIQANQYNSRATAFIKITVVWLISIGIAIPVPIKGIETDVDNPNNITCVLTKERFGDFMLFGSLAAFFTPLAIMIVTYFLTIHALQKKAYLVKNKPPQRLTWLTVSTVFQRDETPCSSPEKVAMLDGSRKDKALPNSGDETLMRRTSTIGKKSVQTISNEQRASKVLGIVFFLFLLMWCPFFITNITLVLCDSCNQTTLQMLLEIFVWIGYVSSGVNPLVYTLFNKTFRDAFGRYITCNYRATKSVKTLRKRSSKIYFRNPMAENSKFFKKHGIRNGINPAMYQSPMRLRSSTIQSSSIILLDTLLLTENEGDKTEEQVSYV
Sequence of Motilin receptor (O43193 whole entry): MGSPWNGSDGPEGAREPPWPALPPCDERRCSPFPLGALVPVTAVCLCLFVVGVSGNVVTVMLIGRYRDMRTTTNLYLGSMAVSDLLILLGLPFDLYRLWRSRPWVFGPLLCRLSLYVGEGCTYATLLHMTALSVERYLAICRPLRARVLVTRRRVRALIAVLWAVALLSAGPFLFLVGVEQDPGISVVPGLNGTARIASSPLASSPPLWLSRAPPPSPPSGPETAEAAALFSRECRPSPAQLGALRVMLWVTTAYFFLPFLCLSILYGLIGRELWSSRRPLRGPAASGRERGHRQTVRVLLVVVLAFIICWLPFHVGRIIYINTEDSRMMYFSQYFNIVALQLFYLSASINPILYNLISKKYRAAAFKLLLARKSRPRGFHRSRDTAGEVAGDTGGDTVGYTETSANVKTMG
Sequence of Histamine H2 receptor (P25021 whole entry): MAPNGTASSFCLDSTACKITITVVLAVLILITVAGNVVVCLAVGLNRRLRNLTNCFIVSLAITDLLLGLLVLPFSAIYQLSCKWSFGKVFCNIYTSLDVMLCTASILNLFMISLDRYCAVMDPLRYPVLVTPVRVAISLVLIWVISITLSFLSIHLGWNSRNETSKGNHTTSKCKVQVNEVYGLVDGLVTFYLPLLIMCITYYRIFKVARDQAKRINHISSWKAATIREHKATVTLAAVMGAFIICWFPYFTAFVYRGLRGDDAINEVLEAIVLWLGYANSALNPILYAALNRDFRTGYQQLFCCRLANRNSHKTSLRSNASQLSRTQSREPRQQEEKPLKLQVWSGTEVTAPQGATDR
Sequence of Cannabinoid receptor 1 (P21554 whole entry): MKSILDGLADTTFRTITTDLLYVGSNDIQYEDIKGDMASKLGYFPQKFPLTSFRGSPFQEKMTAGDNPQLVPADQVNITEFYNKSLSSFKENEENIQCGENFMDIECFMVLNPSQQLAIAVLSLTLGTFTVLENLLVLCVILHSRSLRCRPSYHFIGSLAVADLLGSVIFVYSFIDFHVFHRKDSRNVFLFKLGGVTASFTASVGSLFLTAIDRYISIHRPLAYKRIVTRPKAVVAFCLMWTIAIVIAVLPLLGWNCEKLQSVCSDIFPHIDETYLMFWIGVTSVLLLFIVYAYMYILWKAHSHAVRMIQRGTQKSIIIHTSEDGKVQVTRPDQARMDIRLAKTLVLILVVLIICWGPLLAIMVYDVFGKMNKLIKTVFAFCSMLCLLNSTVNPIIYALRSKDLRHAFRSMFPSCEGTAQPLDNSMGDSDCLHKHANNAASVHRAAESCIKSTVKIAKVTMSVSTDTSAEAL

AC50 [1] [µM]	AC50 [2] [µM]	AC50 (Motilin receptor) [µM]	AC50 (Cannabinoid receptor 1) [µM]	AC50 [3] [µM]	AC50 [4] [µM]	AC50 (Histamine H2 receptor) [µM]	AC50 [5] [µM]	AC50 [6] [µM]	AC50 [7] [µM]	AC50 (Progesterone receptor) [µM]	SMILES	AC50 (Adenosine receptor A1) [µM]
–	–	–	–	–	–	–	–	–	–	–	O=C(OOC(=O)c1ccccc1)c1ccccc1 [BENZOYL PEROXIDE]	> 30
> 30	> 30	> 30	> 30	> 30	> 30	> 30	> 30	> 30	> 30	> 30	CC(C)(Oc1ccc(Cl)cc1)C(=O)OCCOC(=O)c1cccnc1 [ETOFIBRATE]	–
–	–	–	–	–	–	–	–	–	–	–	CC1(C)C[C@@H]1C(=O)N/C(=C\CCCCSC[C@H](N)C(=O)O)C(=O)O [CILASTATIN]	> 30
> 30	> 10	> 10	> 30	> 10	> 30	> 10	> 30	> 30	> 10	> 30	CN(C)[C@@H]1C(O)=C(C(=O)NCN2CCCC2)C(=O)[C@@]2(O)C(O)=C3C(=O)c4c(O)cccc4[C@@](C)(O)[C@H]3C[C@@H]12 [ROLITETRACYCLINE]	–
–	> 10	> 10	–	> 10	1	> 10	> 30	> 30	0.23	> 30	CCC(=O)c1ccc2c(c1)N(CC(C)N(C)C)c1ccccc1S2 (stereo unspecified) [PROPIOMAZINE]	–
–	–	–	–	–	–	–	–	–	–	–	CSCC[C@H](N)C(=O)O [METHIONINE]	> 30
> 30	> 30	> 10	> 30	7.3	> 30	> 30	> 10	> 30	> 30	15	COc1ccc(-c2cc(=S)ss2)cc1 [ANETHOLTRITHION]	–
–	–	–	–	–	–	–	–	–	–	–	CC(=O)Nc1ccc(/C=N/NC(N)=S)cc1 [AMITHIOZONE]	> 30
–	> 10	> 10	> 30	> 10	4.4	> 10	> 30	> 30	> 10	> 10	CN(C)CCC(O)(c1ccccc1)c1ccccc1Cl (stereo unspecified) [CHLOPHEDIANOL]	–
> 30	> 10	> 10	> 30	> 30	–	> 10	> 30	> 30	> 10	–	C[C@]12C=CC(=O)C=C1CC[C@@H]1[C@@H]2[C@@H](O)C[C@@]2(C)[C@H]1CC[C@]2(O)C(=O)CO [PREDNISOLONE]	–
–	–	–	–	–	–	–	–	–	–	–	CC1(C)S[C@@H]2[C@H](NC(=O)[C@H](NC(=O)c3cnc4cccnc4c3O)c3ccccc3)C(=O)N2[C@H]1C(=O)O [APALCILLIN]	> 30
–	–	–	–	–	–	–	–	–	–	–	CC(=O)O[C@]1(C(C)=O)CC[C@H]2[C@@H]3CCC4=CC(=O)CCC4=C3[C@@H](c3ccc(N(C)C)cc3)C[C@@]21C [ULIPRISTAL ACETATE]	> 30
–	–	–	–	–	–	–	–	–	–	–	COCC(=O)O[C@]1(CCN(C)CCCc2nc3ccccc3[nH]2)CCc2cc(F)ccc2[C@@H]1C(C)C [MIBEFRADIL]	> 30
–	–	–	–	–	–	–	–	–	–	–	COc1c(OCCCN2CCOCC2)ccc2c1N=C(NC(=O)c1cnc(N)nc1)N1CCN=C21 [COPANLISIB]	> 30
–	> 30	16	> 30	> 30	> 30	> 30	> 30	> 30	> 30	2.1	C[C@]12C=CC(=O)C=C1C(Cl)=C[C@@H]1[C@@H]2[C@@H](O)C[C@@]2(C)[C@H]1CC[C@]2(O)C(=O)CO [CLOPREDNOL]	–
> 30	> 30	> 30	–	> 30	24	> 30	> 30	> 30	–	–	C[C@]12CCC(=O)C=C1[C@@H]1C[C@@H]1[C@H]1[C@@H]3[C@@H]4C[C@@H]4[C@@]4(CCC(=O)O4)[C@@]3(C)CC[C@@H]12 [DROSPIRENONE]	–
–	> 30	> 30	> 30	–	–	> 30	> 30	> 30	> 30	0.02	CC1(C)O[C@@H]2C[C@H]3[C@@H]4CCC5=CC(=O)C=C[C@]5(C)[C@@]4(F)[C@@H](O)C[C@]3(C)[C@]2(C(=O)CO)O1 [TRIAMCINOLONE ACETONIDE]	–
> 30	> 30	> 30	> 30	> 30	> 30	> 30	> 30	> 30	> 30	0.2	C[C@]12CCC(=O)C=C1C=C[C@@H]1[C@@H]2CC[C@@]2(C)[C@H]1CC[C@@]21CCC(=O)O1 [CANRENONE]	–

SMILES	AC50 [1] [µM]	AC50 [2] [µM]	AC50 (Motilin receptor) [µM]	AC50 (Cannabinoid receptor 1) [µM]	AC50 [3] [µM]	AC50 [4] [µM]	AC50 (Histamine H2 receptor) [µM]	AC50 [5] [µM]	AC50 [6] [µM]	AC50 [7] [µM]	AC50 (Progesterone receptor) [µM]	AC50 (Adenosine receptor A1) [µM]
CCn1c(=O)c2c(nc(/C=C/c3ccc(OC)c(OC)c3)n2C)n(CC)c1=O [ISTRADEFYLLINE]	> 30	–	–	–	> 30	> 30	–	–	–	–	> 30	–
Cc1cn(-c2cc(NC(=O)c3ccc(C)c(Nc4nccc(-c5cnccn5)n4)c3)cc(C(F)(F)F)c2)cn1 [RADOTINIB]	> 30	–	–	–	> 30	> 30	–	–	–	–	> 30	–
Cc1ccc(O)c([C@H](CCN(C(C)C)C(C)C)c2ccccc2)c1 [TOLTERODINE]	> 30	> 10	–	> 30	> 10	–	> 10	> 10	> 10	> 10	–	–
Oc1cc(Cl)ccc1Oc1ccc(Cl)cc1Cl [TRICLOSAN]	> 30	> 30	> 30	> 30	0.7	> 30	> 30	–	> 30	> 30	> 30	–
COc1cccc2c1C(=O)c1c(O)c3c(c(O)c1C2=O)C[C@@](O)(C(=O)CO)C[C@@H]3O[C@H]1C[C@H](N)[C@H](O)[C@H](C)O1 [DOXORUBICIN]	–	> 10	> 30	> 30	> 30	–	> 10	> 30	> 30	15	> 30	–
